Biological target: T1, Fatty-acid amide hydrolase 1 (Rattus norvegicus, UniProt P97612)
T1 sequence (P97612 whole entry): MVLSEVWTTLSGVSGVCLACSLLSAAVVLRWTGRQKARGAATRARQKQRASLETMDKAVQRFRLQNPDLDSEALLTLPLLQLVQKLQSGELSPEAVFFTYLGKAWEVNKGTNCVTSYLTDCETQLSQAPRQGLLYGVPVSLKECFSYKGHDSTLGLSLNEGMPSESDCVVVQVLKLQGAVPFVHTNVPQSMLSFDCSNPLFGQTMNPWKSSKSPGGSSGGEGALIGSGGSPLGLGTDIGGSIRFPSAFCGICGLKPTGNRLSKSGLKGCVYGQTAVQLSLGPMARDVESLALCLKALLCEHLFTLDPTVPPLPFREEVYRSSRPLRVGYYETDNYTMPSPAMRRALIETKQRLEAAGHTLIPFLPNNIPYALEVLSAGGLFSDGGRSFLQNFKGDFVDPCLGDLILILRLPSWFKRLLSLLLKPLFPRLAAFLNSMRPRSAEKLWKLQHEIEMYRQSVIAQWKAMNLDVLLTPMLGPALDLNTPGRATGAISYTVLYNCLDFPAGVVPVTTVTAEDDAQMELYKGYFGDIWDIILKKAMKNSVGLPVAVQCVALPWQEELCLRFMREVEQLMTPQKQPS
Test: Inhibition of rat FAAH expressed in Escherichia coli

SMILES | Ki [µM] | IC50 [µM]
O=C(O)c1cccc(-c2nnc(CC(O)Cc3ccc(-c4ccccc4)cc3)o2)n1 (configuration not stated) | > 2.5 | 
CCCCCCCC/C=C\CCCCCCCC(=O)c1nnc(-c2ccccn2)s1 | 0.02 | 
O=C(O)c1cccc(-c2nnc(CCCCCCCc3ccccc3)o2)n1 | > 2.5 | 
O=C(CCc1ccc(-c2ccccc2)cc1)c1nnc(-c2cccc(Br)n2)o1 | 0.0036 | 
Cn1nc(C(=O)CCCCCCc2ccccc2)nc1-c1ccccn1 | 7.3 | 
COC(=O)c1cccc(-c2nnc(CCCCCCCc3ccccc3)o2)n1 | > 2.5 | 
CCCCCCCC/C=C\CCCCCCCC(=O)c1nnc(-c2cccs2)o1 | 0.008 | 
O=C(CCCCCCc1ccccc1)c1nc(-c2cccc(I)n2)no1 | 0.001 | 
c1ccc(CCCCCCCc2nnc(-c3ccco3)o2)cc1 | 18 | 
Cn1nc(-c2ccccn2)nc1C(=O)CCCCCCc1ccccc1 | 30 | 
COC(=O)c1nnc(C(=O)CCCCCCc2ccccc2)[nH]1 | > 1 | 
Cn1c(C(=O)CCCCCCc2ccccc2)nnc1-c1ccccn1 | 30 | 
O=C(CCCCCCc1ccccc1)c1nc(-c2cccc(Br)n2)no1 | 0.00063 | 
Cn1nnnc1C(=O)CCCCCCc1ccccc1 | 0.018 | 
CCCCCCCC/C=C\CCCCCCCC(=O)c1nncs1 | 0.17 | 
O=C(CCCCCCc1ccccc1)c1nnc(-c2cccc(Br)n2)o1 | 0.0008 | 
O=C(CCc1ccc(-c2ccccc2)cc1)c1nnc(-c2ccccn2)o1 | 0.0003 | 

SMILES | Ki [µM] | IC50 [µM]
O=C(O)c1cccc(-c2nnc(C(=O)CCc3ccc(-c4ccccc4)cc3)o2)n1 | 0.048 | 
O=C(CCCCCCc1ccccc1)c1nnc(-c2cccs2)o1 |  | 2.5
Cn1nnc(C(=O)CCCCCCc2ccccc2)n1 | 0.01 | 
O=C(CCCCCCc1ccccc1)c1nnc(-c2cccc(Br)n2)s1 | 0.037 | 
O=C(CCCCCCc1ccccc1)c1nccs1 |  | > 100
COC(=O)c1cccc(-c2nnc(C(=O)CCc3ccc(-c4ccccc4)cc3)o2)n1 | 0.0016 | 
COC(=O)c1cccc(-c2nnc(CC(=O)Cc3ccc(-c4ccccc4)cc3)o2)n1 | > 2.5 | 
O=C(CCCCCCc1ccccc1)c1cnc(-c2ccccn2)o1 | 22 | 
CCCCCCCC/C=C\CCCCCCCC(=O)c1ncc(-c2cccs2)o1 | 0.089 | 
c1ccc(CCCCCCCc2nnc(-c3ccccn3)o2)cc1 | 60 | 
O=C(Cc1ccc(-c2ccccc2)cc1)Cc1nnc(-c2cccc(C(=O)O)n2)o1 | > 2.5 | 
COC(=O)c1cccc(-c2nnc(CC(O)Cc3ccc(-c4ccccc4)cc3)o2)n1 (configuration not stated) | > 2.5 | 
CCCCCCCC/C=C\CCCCCCCC(=O)c1nnc(-c2ccco2)s1 | 0.15 | 
N#Cc1cccc(-c2noc(C(=O)CCCCCCc3ccccc3)n2)n1 | 0.00038 | 
CCCCCCCC/C=C\CCCCCCCC(=O)c1nnc(-c2ccco2)o1 | 0.005 | 
O=C(CCCCCCc1ccccc1)c1nc(-c2cccc(Cl)n2)no1 | 0.001 | 

Biological target: T2, Neutral cholesterol ester hydrolase 1 (Homo sapiens, UniProt Q6PIU2)
T2 sequence (Q6PIU2 whole entry): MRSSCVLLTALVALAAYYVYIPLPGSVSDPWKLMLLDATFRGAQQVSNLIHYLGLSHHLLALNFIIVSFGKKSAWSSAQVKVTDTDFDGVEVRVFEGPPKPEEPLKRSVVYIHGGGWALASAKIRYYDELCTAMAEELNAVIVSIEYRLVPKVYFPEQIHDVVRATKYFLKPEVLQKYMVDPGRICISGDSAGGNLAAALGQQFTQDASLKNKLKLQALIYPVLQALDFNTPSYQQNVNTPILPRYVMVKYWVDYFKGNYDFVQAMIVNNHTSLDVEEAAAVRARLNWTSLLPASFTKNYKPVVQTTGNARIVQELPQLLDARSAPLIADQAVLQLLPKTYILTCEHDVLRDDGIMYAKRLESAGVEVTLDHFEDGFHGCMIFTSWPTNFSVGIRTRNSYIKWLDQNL
Test: Inhibition of KIAA1363 hydrolase

SMILES | IC50 [µM]
COC(=O)c1cccc(-c2nnc(C(=O)CCCCCCc3ccccc3)s2)n1 | > 100
COC(=O)c1cccc(-c2nc(C(=O)CCCCCCc3ccccc3)no2)n1 | > 100
O=C(CCCCCCc1ccccc1)c1ncco1 | 20
O=C(CCCCCCc1ccccc1)c1nccs1 | > 100

From ChEMBL document CHEMBL1155875, “Optimization of the central heterocycle of alpha-ketoheterocycle inhibitors of fatty acid amide hydrolase” (J Med Chem, 2008)
